Laboratory results taken from PubChem BioAssay AID330 (DTP/NCI, 2004).
Several values for one entry are separate records, joined by “and”; a condition that tells them apart may be missing. Equal values may be shown once. Inconclusive results and toxic doses are left out. Square brackets hold non-standard residues; d marks the D form. Peptide text beside a SMILES is read from it. Hpg = N[CH](C(=O)O)c1ccc(O)cc1

Test system: P388 leukemia ip, CD2F1 mice, survival T/C
Assay: NCI In Vivo Anticancer Drug Screen. Data for tumor model P388 Leukemia (intraperitoneal) in CD2F1 (CDF1) mice
Conditions: endpoint: median survival time, higher = longer survival
Summary of the method: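 Mice carrying the transplanted tumor received test compound or vehicle. Survival was recorded in each group, and the value is the treated-group measurement divided by that of the vehicle-treated control group.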

[1] = dose: 12.5 mg/kg/injection, schedule: Q01DX009 (ip), vehicle: water
[2] = dose: 25.0 mg/kg/injection, schedule: Q01DX009 (ip), vehicle: water
[3] = dose: 60.0 mg/kg/injection, schedule: Q01DX005 (ip), vehicle: saline with Tween-80
[4] = dose: 120.0 mg/kg/injection, schedule: Q01DX005 (ip), vehicle: saline with Tween-80
[5] = dose: 240.0 mg/kg/injection, schedule: Q01DX005 (ip), vehicle: saline with Tween-80
[6] = dose: 50.0 mg/kg/injection, schedule: Q01DX009 (ip), vehicle: saline
[7] = dose: 100.0 mg/kg/injection, schedule: Q01DX009 (ip), vehicle: saline
[8] = dose: 200.0 mg/kg/injection, schedule: Q01DX009 (ip), vehicle: saline
[9] = dose: 60.0 mg/kg/injection, schedule: Q01DX005 (ip), vehicle: Klucel (hydroxypropylcellulose) (HPC)
[10] = dose: 120.0 mg/kg/injection, schedule: Q01DX005 (ip), vehicle: Klucel (hydroxypropylcellulose) (HPC)
[11] = dose: 240.0 mg/kg/injection, schedule: Q01DX005 (ip), vehicle: Klucel (hydroxypropylcellulose) (HPC)
[12] = dose: 50.0 mg/kg/injection, schedule: Q01DX005 (ip), vehicle: saline with Tween-80
[13] = dose: 100.0 mg/kg/injection, schedule: Q01DX005 (ip), vehicle: saline with Tween-80
[14] = dose: 200.0 mg/kg/injection, schedule: Q01DX005 (ip), vehicle: saline with Tween-80
[15] = dose: 50.0 mg/kg/injection, schedule: Q01DX005 (ip), vehicle: saline
[16] = dose: 100.0 mg/kg/injection, schedule: Q01DX005 (ip), vehicle: saline
[17] = dose: 200.0 mg/kg/injection, schedule: Q01DX005 (ip), vehicle: saline

CC(=O)Nc1cc(NC(C)=O)cc(N(CCCl)CCCl)c1 was tested, and the T/C (dose: 3.13 mg/kg/injection, schedule: Q01DX009 (ip), vehicle: water) was 118 % of control, the T/C [1] was 151 % of control and the T/C (dose: 16.5 mg/kg/injection, schedule: Q01DX009 (ip), vehicle: water) was 162 % of control. The T/C [2] was 154 % of control and 169 % of control and 196 % of control and the T/C (dose: 37.5 mg/kg/injection, schedule: Q01DX009 (ip), vehicle: water) was 122 % of control.
In the case of C[Si](C)(C)Cc1ccccc1C(=O)O, the T/C [3] is reported as 100 % of control, the T/C [4] is reported as 103 % of control and the T/C [5] is reported as 94 % of control.
For CC(C)CC(N)C(=O)NC(C(N)=O)c1ccc(O)cc1 (configuration not stated) (H-Leu-[Hpg]-NH2; configuration not given here), the T/C [6] was 101 % of control, the T/C [7] was 92 % of control and the T/C [8] was 88 % of control.
In the case of Nc1nc(N)c2nc(SCc3ccc(Cl)cc3)c(N)nc2n1, the T/C (dose: 15.0 mg/kg/injection, schedule: Q01DX005 (ip), vehicle: Klucel (hydroxypropylcellulose) (HPC)) is reported as 88 % of control, the T/C (dose: 30.0 mg/kg/injection, schedule: Q01DX005 (ip), vehicle: Klucel (hydroxypropylcellulose) (HPC)) is reported as 88 % of control and the T/C [9] is reported as 103 % of control. For the same compound, the T/C [10] was 88 % of control and the T/C [11] was 94 % of control.
With O=C(CSc1nc2ccccc2[nH]1)NCCO the T/C [3] was 98 % of control, the T/C [4] was 97 % of control and the T/C [5] was 100 % of control.
In the case of CC1(C)c2ccccc2-c2nc3ccccc3cc2C1(Br)Br, the T/C [12] is reported as 105 % of control, the T/C [13] is reported as 110 % of control and the T/C [14] is reported as 120 % of control.
CCN(Cc1c(C)nc2ccc(N(C)C)cc2c1Cl)CN(CC)Cc1c(C)nc2ccc(N(C)C)cc2c1Cl was tested, and the T/C (dose: 100.0 mg/kg/injection, schedule: Q01DX002 (ip), vehicle: saline with Tween-80) was 100 % of control, the T/C (dose: 200.0 mg/kg/injection, schedule: Q01DX002 (ip), vehicle: saline with Tween-80) was 94 % of control and the T/C (dose: 400.0 mg/kg/injection, schedule: Q01DX002 (ip), vehicle: saline with Tween-80) was 98 % of control.
Cc1cccc(C(O)c2cnc(C)n2Cc2ccccc2)c1 (configuration not stated) was tested, and the T/C [9] was 101 % of control, the T/C [10] was 109 % of control and the T/C [11] was 100 % of control.
In the case of CC(C)=CCC(OC(=O)C=C(C)C)c1cc(O)c2c(O)ccc(O)c2c1O.[Fe] (configuration not stated), the T/C (dose: 100.0 mg/kg/injection, schedule: Q04DX002 (ip), vehicle: saline with Tween-80) is reported as 92 % of control, the T/C (dose: 200.0 mg/kg/injection, schedule: Q04DX002 (ip), vehicle: saline with Tween-80) is reported as 92 % of control and the T/C (dose: 400.0 mg/kg/injection, schedule: Q04DX002 (ip), vehicle: saline with Tween-80) is reported as 93 % of control.
For O=C(OCc1ccccc1)C(Cc1c[nH]c2ccccc12)n1cnc2ccccc2c1=O (configuration not stated), the T/C (dose: 12.5 mg/kg/injection, schedule: Q01DX005 (ip), vehicle: Klucel (hydroxypropylcellulose) (HPC)) was 97 % of control, the T/C (dose: 25.0 mg/kg/injection, schedule: Q01DX005 (ip), vehicle: Klucel (hydroxypropylcellulose) (HPC)) was 97 % of control and the T/C (dose: 50.0 mg/kg/injection, schedule: Q01DX005 (ip), vehicle: Klucel (hydroxypropylcellulose) (HPC)) was 96 % of control.
CCOC(=O)NC(NC(=O)OCC)c1cccc([N+](=O)[O-])c1 was tested, and the T/C (dose: 100.0 mg/kg/injection, schedule: Q04DX003 (ip), vehicle: saline) was 91 % of control, the T/C (dose: 200.0 mg/kg/injection, schedule: Q04DX003 (ip), vehicle: saline) was 95 % of control and the T/C (dose: 400.0 mg/kg/injection, schedule: Q04DX003 (ip), vehicle: saline) was 91 % of control.
With COC(=O)C1=C(C(=O)OC)C2C=CC1C1C(Cl)C(Cl)C21 (configuration not stated) the T/C (dose: 7.5 mg/kg/injection, schedule: Q01DX009 (ip), vehicle: saline with Tween-80) was 103 % of control, the T/C (dose: 15.0 mg/kg/injection, schedule: Q01DX009 (ip), vehicle: saline with Tween-80) was 112 % of control and the T/C (dose: 30.0 mg/kg/injection, schedule: Q01DX009 (ip), vehicle: saline with Tween-80) was 115 % of control. The T/C (dose: 100.0 mg/kg/injection, schedule: Q01DX009 (ip), vehicle: saline with Tween-80) was 95 % of control and the T/C (dose: 200.0 mg/kg/injection, schedule: Q01DX009 (ip), vehicle: saline with Tween-80) was 90 % of control.
In the case of COc1ccc(/C(=N\N)C2=NNC3(CCCCC3)NN2)cc1, the T/C (dose: 50.0 mg/kg/injection, schedule: Q01DX009 (ip), vehicle: Klucel (hydroxypropylcellulose) (HPC)) is reported as 94 % of control, the T/C (dose: 100.0 mg/kg/injection, schedule: Q01DX009 (ip), vehicle: Klucel (hydroxypropylcellulose) (HPC)) is reported as 93 % of control and the T/C (dose: 200.0 mg/kg/injection, schedule: Q01DX009 (ip), vehicle: Klucel (hydroxypropylcellulose) (HPC)) is reported as 96 % of control.
In the case of NC(=O)Cn1ccnc1[N+](=O)[O-], the T/C [1] is reported as 93 % of control, the T/C [2] is reported as 99 % of control and the T/C (dose: 50.0 mg/kg/injection, schedule: Q01DX009 (ip), vehicle: water) is reported as 90 % of control. The T/C (dose: 100.0 mg/kg/injection, schedule: Q01DX009 (ip), vehicle: water) was 118 % of control and the T/C (dose: 200.0 mg/kg/injection, schedule: Q01DX009 (ip), vehicle: water) was 107 % of control.
In the case of COc1cccc2c1C(=O)c1c(O)c3c(c(O)c1C2=O)CC(O)(C(=O)COC1CC(OC(C)=O)C(OC(C)=O)C(C)O1)CC3OC1CC(OC(C)=O)C(OC(C)=O)C(C)O1 (configuration not stated), the T/C (dose: 3.13 mg/kg/injection, schedule: Q04DX003 (ip), vehicle: saline with Tween-80) is reported as 100 % of control, the T/C (dose: 6.25 mg/kg/injection, schedule: Q04DX003 (ip), vehicle: saline with Tween-80) is reported as 100 % of control and the T/C (dose: 12.5 mg/kg/injection, schedule: Q04DX003 (ip), vehicle: saline with Tween-80) is reported as 100 % of control. The T/C (dose: 25.0 mg/kg/injection, schedule: Q04DX003 (ip), vehicle: saline with Tween-80) was 95 % of control and the T/C (dose: 50.0 mg/kg/injection, schedule: Q04DX003 (ip), vehicle: saline with Tween-80) was 100 % of control.
CC(N=c1ccccn1O)C(O)c1ccccc1 (configuration not stated) was tested, and the T/C [6] was 101 % of control, the T/C [7] was 97 % of control and the T/C [8] was 97 % of control.
For C[C@@H]1[C@H](c2ccccc2)OCN1C, the T/C (dose: 12.5 mg/kg/injection, schedule: Q01DX005 (ip), vehicle: saline) was 101 % of control and 93 % of control, the T/C (dose: 25.0 mg/kg/injection, schedule: Q01DX005 (ip), vehicle: saline) was 101 % of control and the T/C (dose: 30.0 mg/kg/injection, schedule: Q01DX005 (ip), vehicle: saline) was 111 % of control. For the same compound, the T/C [15] was 109 % of control and 124 % of control, the T/C (dose: 60.0 mg/kg/injection, schedule: Q01DX005 (ip), vehicle: saline) was 118 % of control and the T/C [16] was 111 % of control and 120 % of control. The T/C [17] was 109 % of control.
For CCOC(=O)c1nc2ccccc2c(=O)n1NC(=S)Nc1ccc(Cl)cc1, the T/C [12] was 93 % of control, the T/C [13] was 93 % of control and the T/C [14] was 105 % of control.
For N#C/C(=C\c1c2ccccc2c(Cl)c2ccccc12)C(N)=S, the T/C (dose: 6.25 mg/kg/injection, schedule: Q01DX009 (ip), vehicle: saline) was 90 % of control, the T/C (dose: 12.5 mg/kg/injection, schedule: Q01DX009 (ip), vehicle: saline) was 88 % of control and the T/C (dose: 25.0 mg/kg/injection, schedule: Q01DX009 (ip), vehicle: saline) was 90 % of control. The T/C [6] was 92 % of control, the T/C [7] was 97 % of control and the T/C [8] was 103 % of control.
In the case of c1ccc2oc(C34OC5CC(CC(C5)O3)O4)nc2c1, the T/C (dose: 100.0 mg/kg/injection, schedule: Q01DX001 (ip), vehicle: saline with Tween-80) is reported as 101 % of control, the T/C (dose: 200.0 mg/kg/injection, schedule: Q01DX001 (ip), vehicle: saline with Tween-80) is reported as 99 % of control and the T/C (dose: 400.0 mg/kg/injection, schedule: Q01DX001 (ip), vehicle: saline with Tween-80) is reported as 100 % of control.
CC1=CC(O)C(O)C2(C)C1CC1OC(=O)C(OC3OC(CO)C(O)C(O)C3O)C3C(C)C(O)C4(O)OCC13C42 (configuration not stated) was tested, and the T/C (dose: 2.13 mg/kg/injection, schedule: Q01DX005 (ip), vehicle: water) was 101 % of control.
In the case of CC12CCC(O1)C1C(=O)NC(=O)C12 (configuration not stated), the T/C [15] is reported as 102 % of control, the T/C [16] is reported as 108 % of control and the T/C [17] is reported as 100 % of control.
With Cn1c(=O)c2c(ncn2CCN2CCNCC2)n(C)c1=O the T/C (dose: 50.0 mg/kg/injection, schedule: Q01DX005 (ip), vehicle: distilled water + alcohol) was 102 % of control, the T/C (dose: 100.0 mg/kg/injection, schedule: Q01DX005 (ip), vehicle: distilled water + alcohol) was 100 % of control and the T/C (dose: 200.0 mg/kg/injection, schedule: Q01DX005 (ip), vehicle: distilled water + alcohol) was 100 % of control.
With CC(=O)N1C(=O)C2(Nc3cc4ccccc4cc3N2)c2ccccc21 the T/C [3] was 94 % of control, the T/C [4] was 93 % of control and the T/C [5] was 92 % of control.
